Measurements from paper PMC6039432, “A small-molecule inhibitor of SOD1-Derlin-1 interaction ameliorates pathology in an ALS mouse model” (Nature Communications, 2018).

Legend:
[1] = target: T1, SOD1-Derlin-1 complex (Flag-SOD1 / Derlin-1-HA) (Homo sapiens, UniProt P00441, G94A); test: in vitro co-immunoprecipitation of purified complex, immunoblot; type: biochemical
T1 construct: Flag-SOD1 G93A and Derlin-1-HA co-expressed in HEK293A; complex purified on anti-Flag beads for the in vitro assay, or assayed in cells; all tags kept; with Derlin-1

[2] = target: T2, SOD1 (GST-SOD1 / Flag-SOD1; WT or G93A) (Homo sapiens, UniProt P00441, G94A); test: fluorescence polarization (intrinsic fluorescence of compound); type: binding
T2 construct: full length; GST fusion from pGEX-6P-1 in E. coli BL21, eluted with glutathione (tag apparently kept), loaded with CuSO4 and ZnCl2 (described for activity assay); Flag-tagged in HEK293A for pull-down
T2 sequence (P00441 2-154 G94A): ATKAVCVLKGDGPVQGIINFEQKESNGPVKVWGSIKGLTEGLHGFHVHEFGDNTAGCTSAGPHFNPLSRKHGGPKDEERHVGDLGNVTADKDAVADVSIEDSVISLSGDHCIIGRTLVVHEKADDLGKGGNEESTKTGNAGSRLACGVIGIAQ

T1 sequence (P00441 2-154 G94A): as above
T1 sequence (Q9BUN8 2-251 partner): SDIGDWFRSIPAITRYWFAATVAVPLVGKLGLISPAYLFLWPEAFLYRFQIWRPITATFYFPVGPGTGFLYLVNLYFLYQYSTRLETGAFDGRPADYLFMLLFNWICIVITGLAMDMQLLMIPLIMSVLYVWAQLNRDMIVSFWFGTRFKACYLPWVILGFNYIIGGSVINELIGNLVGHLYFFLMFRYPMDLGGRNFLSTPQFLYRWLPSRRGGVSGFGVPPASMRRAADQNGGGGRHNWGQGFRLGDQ

| SMILES | IC50 [1] [µM] | Kd [2] [µM] |
| --- | --- | --- |
| Nc1c(C(=O)Nc2ccc3c(c2)OCO3)sc2nc(-c3cccnc3)ccc12 [#56] | 23.3 |  |
| Nc1c(C(=O)Nc2ccc(Br)cc2Br)sc2nc(-c3cccnc3)ccc12 [#56-20] | 7.11 | 81.1 |
| Nc1c(C(=O)Nc2ccc(Cl)cc2Cl)sc2nc(-c3cccnc3)ccc12 [#56-26] | 6.2 |  |
